These results are taken from patent US12180192B2, “Modulators of THR-β and methods of use thereof” (ALIGOS THERAPEUTICS, INC., priority 2019, dated 2024).

In general, EC50 refers to the concentration giving half of the maximal effect. The Emax is the size of the effect at its maximum, as opposed to the concentration needed.

Assay [1] deals with T1, human thyroid receptor beta ligand-binding domain (LBD) (Homo sapiens, UniProt P10828).
T1 construct: purchased Invitrogen
T1 sequence (P10828 217-461 limits assumed): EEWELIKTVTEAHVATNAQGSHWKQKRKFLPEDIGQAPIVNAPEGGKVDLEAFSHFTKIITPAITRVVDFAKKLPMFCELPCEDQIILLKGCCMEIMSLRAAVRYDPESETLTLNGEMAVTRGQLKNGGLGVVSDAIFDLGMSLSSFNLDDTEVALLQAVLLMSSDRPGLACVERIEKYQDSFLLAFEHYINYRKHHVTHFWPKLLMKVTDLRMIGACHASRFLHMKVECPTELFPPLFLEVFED
Description: TR-FRET thyroid receptor beta coactivator assay (THR biochemical assay, Assay 1). Particulars: for EC50: THR-beta, TR-FRET coactivator assay, read-out: Activity category Assay 1 (EC50, THR-beta agonist); for Emax / Activity category Assay 1 THRβ (Emax): Table 5, Assay 1, THRβ; for Emax: read-out: Activity category Assay 1 THRβ (Emax). In short, it runs like this:
(§1)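 GST-tagged human TRβ or TRα LBD, 1 nM final (stated for β), with fluorescein-SRC2-2 coactivator peptide (200 nM) and Tb-anti-GST antibody (2 nM). Agonists serially diluted, 1% DMSO final. 1 h incubation at rt in the dark; TR-FRET read as rise in fluorescein and drop in terbium emission.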
(TR-FRET usually uses a lanthanide donor and a delayed reading to cut background.)

Assay [2] concerns the target T2, human thyroid receptor alpha ligand-binding domain (LBD) (Homo sapiens, UniProt P10827).
T2 construct: purchased Invitrogen
Briefly: TR-FRET thyroid receptor alpha coactivator assay (THR biochemical assay, Assay 1). Particulars: for EC50: Table 4, THR-alpha, read-out: Activity category Assay 1 (EC50, THR-alpha agonist activity); for Emax / Activity category Assay 1 THRα (Emax): Table 5, THRα; for Emax: read-out: Activity category Assay 1 THRα (Emax). An outline of the steps: as §1

T2 sequence (P10827 163-410 isoform P10827-2 limits assumed, other chains not shown): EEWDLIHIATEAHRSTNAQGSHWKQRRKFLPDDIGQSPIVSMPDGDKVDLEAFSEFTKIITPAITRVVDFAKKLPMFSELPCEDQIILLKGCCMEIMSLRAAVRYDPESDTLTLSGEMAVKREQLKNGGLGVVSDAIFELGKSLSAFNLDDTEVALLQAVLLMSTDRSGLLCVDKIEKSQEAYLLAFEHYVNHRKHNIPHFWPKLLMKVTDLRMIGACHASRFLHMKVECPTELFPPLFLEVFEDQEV

As to `CC(C)c1n[nH]c2nnc(Oc3c(Cl)cc(-n4nc(C#N)c(=O)[nH]c4=O)cc3Cl)cc12` [Compound 75A, 2-(3,5-Dichloro-4-((3-isopropyl-1H-pyrazolo[3,4-c]pyridazin-5-yl)oxy)phenyl)-3,5-dioxo-2,3,4,5-tetrahydro-1,2,4-triazine-6-carbonitrile], in assay [1], the EC50 is under 50 nM and the Emax fell in the range of 50 to 75%. In assay [2], the EC50 was in the range of 50 to 250 nM and the Emax was under 50%.

For the molecule `Nc1nn(-c2cc(Cl)c(Oc3cc(C4CC5(CCC5)C4)c(=O)[nH]n3)c(Cl)c2)c(=O)[nH]c1=O` [Compound 94], in assay [1], the half-maximal effective concentration (EC50) lay within 50 to 250 nM and the Emax was under 50%. In addition, in assay [2], the EC50 is 250 to 1000 nM and the Emax was under 50%.

Consider `Cc1cc(-n2nc(C#N)c(=O)[nH]c2=O)cc(C)c1Cc1ccc2[nH]cc(C(C)C)c2n1` [Compound 31, 2-[4-[(3-isopropyl-1H-pyrrolo[3,2-b]pyridin-5-yl)methyl]-3,5-dimethyl-phenyl]-3,5-dioxo-1,2,4-triazine-6-carbonitrile], for which, in assay [1], the EC50 was under 50 nM and the maximal effect (Emax) lay within 50 to 75%. Besides, in assay [2], the EC50 was under 50 nM and the maximal effect (Emax) is under 50%.

As for `CCC(C)c1cc(Oc2c(Cl)cc(-n3nc(N)c(=O)[nH]c3=O)cc2Cl)n[nH]c1=O` (stereo not shown) [Compound 39-A], in assay [1], the EC50 was under 50 nM and the “Activity category Assay 1 THRβ (Emax)” value is given as “C (Emax<50%)”. Moreover, in assay [2], the EC50 was in the range of 250 to 1000 nM; the “Activity category Assay 1 THRα (Emax)” value is “B (Emax≥50%, and <75%)”.

With `Nc1nn(-c2cc(Cl)c(Oc3cc(-c4ccc5c(c4)CCCO5)c(=O)[nH]n3)c(Cl)c2)c(=O)[nH]c1=O` [Compound 114], the results for the EC50 in assay [1] and in assay [2] were 50 to 250 nM and over 25000 nM, respectively. For the same molecule, the Emax in assay [1] and in assay [2] was under 50% each time.

Regarding `Cc1cc(-n2nc(N)c(=O)[nH]c2=O)cc(C)c1Cc1ccc2[nH]cc(C(C)C)c2n1` [Compound 55, 6-amino-2-[4-[(3-isopropyl-1H-pyrrolo[3,2-b]pyridin-5-yl)methyl]-3,5-dimethyl-phenyl]-1,2,4-triazine-3,5-dione], the EC50 in assay [1] and in assay [2] was under 50 nM each time. The Emax in assay [1] and in assay [2] was 50 to 75% in each case.

Consider `Nc1nn(-c2cc(Cl)c(Oc3n[nH]c(=O)cc3-c3ccc4ccccc4c3)c(Cl)c2)c(=O)[nH]c1=O` [Compound 67-A, 6-amino-2-(3,5-dichloro-4-((4-(naphthalen-2-yl)-6-oxo-1,6-dihydropyridazin-3-yl)oxy)phenyl)-1,2,4-triazine-3,5(2H,4H)-dione], for which, in assay [1], the concentration giving a half-maximal response (EC50) was under 50 nM and the maximal effect (Emax) was under 50%. For the same molecule, in assay [2], the EC50 is over 25000 nM and the Emax was under 50%.

In the case of `CC(c1cc(Oc2c(Cl)cc(-n3nc(N)c(=O)[nH]c3=O)cc2Cl)n[nH]c1=O)C1CC(F)(F)C1` (single isomer, unassigned) [Compound 61-A, 6-amino-2-[3,5-dichloro-4-([5-[1-(3,3-difluorocyclobutyl)ethyl]-6-oxo-1H-pyridazin-3-yl]oxy)phenyl]-4H-1,2,4-tri-azine-3,5-dione], in assay [1], the EC50 was under 50 nM and the maximal effect (Emax) is 50 to 75%. In assay [2], the EC50 lay in the range of 50 to 250 nM and the maximal response (Emax) was 50 to 75%.

Take `C[C@H]1C[C@H](c2cc(Oc3c(Cl)cc(-n4nc(N)c(=O)[nH]c4=O)cc3Cl)n[nH]c2=O)C1` (single isomer, unassigned) [Compound 86-A, 6-Amino-2-(3,5-dichloro-4-((5-((1r,3r)-3-methylcyclobutyl)-6-oxo-1,6-dihydropyridazin-3-yl)oxy)phenyl)-1,2,4-triazine-3,5(2H,4H)-dione]: the half-maximal effective concentration (EC50) in assay [1] lay within 50 to 250 nM; in assay [2], 250 to 1000 nM. In addition, the maximal effect (Emax) in assay [1] and in assay [2] was under 50% each time.

Regarding `Cc1cc(-n2nc(N)c(=O)[nH]c2=O)cc(C)c1Cc1cc2c(C(C)C)c[nH]c2cn1` [Compound 157, 6-amino-2-[4-[(3-isopropyl-1H-pyrrolo[2,3-c]pyridin-5-yl)methyl]-3,5-dimethyl-phenyl]-1,2,4-triazine-3,5-dione], the half-maximal effective concentration (EC50) is under 50 nM in assay [1] and 250 to 1000 nM in assay [2]. Moreover, the figures for the maximum response (Emax) in assay [1] and in assay [2] were over 75% and 50 to 75%, respectively.

Consider `CCC(C)c1cc(Oc2c(Cl)cc(-n3nc(N)c(=O)[nH]c3=O)cc2Cl)n[nH]c1=O` (stereo not shown) [Compound 39-B], for which, in assay [1], the EC50 is under 50 nM; the “Activity category Assay 1 THRβ (Emax)” value is “B (Emax≥50%, and <75%)”. In assay [2], the EC50 was in the range of 50 to 250 nM; the “Activity category Assay 1 THRα (Emax)” value is “B (Emax≥50%, and <75%)”.

Take `Nc1nn(-c2cc(Cl)c(Oc3cc(C4CCC4)c(=O)[nH]n3)c(Cl)c2)c(=O)[nH]c1=O` [Compound 40, 6-amino-2-[3,5-dichloro-4-[(5-cyclobutyl-6-oxo-1H-pyridazin-3-yl)oxy]phenyl]-4H-1,2,4-triazine-3,5-dione]: in assay [1], the concentration giving a half-maximal response (EC50) was under 50 nM and the maximal response (Emax) fell in the range of 50 to 75%. For the same molecule, in assay [2], the concentration giving a half-maximal response (EC50) was 50 to 250 nM and the Emax fell in the range of 50 to 75%.

For `CC(C)Nc1n[nH]c2ccc(Oc3c(Cl)cc(-n4nc(C#N)c(=O)[nH]c4=O)cc3Cl)cc12` [Compound 145, 2-(3,5-dichloro-4-((3-(isopropylamino)-1H-indazol-5-yl)oxy)phenyl)-3,5-dioxo-2,3,4,5-tetrahydro-1,2,4-triazine-6-carbonitrile], the concentration for a half-maximal effect (EC50) in assay [1] and in assay [2] was under 50 nM throughout. Also, the maximum response (Emax) in assay [1] is under 50%; in assay [2], 50 to 75%.

With `CC(C)c1c[nH]c2ccc(Oc3c(Cl)cc(-n4nc(C#N)c(=O)[nH]c4=O)cc3Cl)nc12` [Compound 18], the concentration giving a half-maximal response (EC50) in assay [1] was under 50 nM; in assay [2], over 25000 nM. In addition, the Emax in assay [1] and in assay [2] was under 50% throughout.

Consider `Cc1cc(-n2nc(N)c(=O)[nH]c2=O)cc(C)c1Cc1ccc2c(c1)C1(CC1)C(=O)N2` [Compound 151, 6-Amino-2-(3,5-dimethyl-4-((2′-oxospiro[cyclopropane-1,3′-indolin]-5′-yl)methyl)phenyl)-1,2,4-triazine-3,5(2H,4H)-dione], for which the EC50 in assay [1] and in assay [2] was under 50 nM in each case. Moreover, the maximum response (Emax) in assay [1] was 50 to 75%; in assay [2] it was over 75%.

For `Nc1nn(-c2cc(Cl)c(Oc3n[nH]c(=O)cc3-c3ccc4c(c3)CCCC4)c(Cl)c2)c(=O)[nH]c1=O` [Compound 72-A, 6-amino-2-(3,5-dichloro-4-[[6-oxo-4-(5,6,7,8-tetrahydronaphthalen-2-yl)-1H-pyridazin-3-yl]oxy]phenyl)-4H-1,2,4-triazine-3,5-dione], in assay [1], the 50% effective concentration (EC50) is under 50 nM and the Emax was under 50%. Moreover, in assay [2], the concentration giving a half-maximal response (EC50) lay within 50 to 250 nM and the Emax is under 50%.

With `CC(C)c1cc(=O)[nH]c2ccc(Oc3c(Cl)cc(-n4nc(N)c(=O)[nH]c4=O)cc3Cl)cc12` [Compound 146, 6-amino-2-[3,5-dichloro-4-[(4-isopropyl-2-oxo-1H-quinolin-6-yl)oxy]phenyl]-1,2,4-triazine-3,5-dione], the concentration giving a half-maximal response (EC50) is under 50 nM in assay [1] and 50 to 250 nM in assay [2]. Further, the Emax in assay [1] and in assay [2] was under 50% each time.

Turning to `Cc1cc(-n2ncc(=O)[nH]c2=O)cc(C)c1Cc1ccc2[nH]cc(C(C)C)c2n1` [Compound 54, 2-[4-[(3-isopropyl-1H-pyrrolo[3,2-b]pyridine-5-yl)methyl]-3,5-dimethyl-phenyl]-1,2,4-triazine-3,5-dione], in assay [1], the EC50 is under 50 nM and the Emax is 50 to 75%. In assay [2], the half-maximal effective concentration (EC50) was under 50 nM and the Emax was under 50%.

Consider `CC(C)c1c[nH]c2ccc(Oc3c(Cl)cc(-n4nc(C#N)c(=O)[nH]c4=O)cc3Cl)cc12` [Compound 1, 2-[3,5-dichloro-4-[(3-isopropyl-1H-indol-5-yl)oxy]-phenyl]-3,5-dioxo-4H-1,2,4-tri-azine-6-carbonitrile], for which the EC50 in assay [1] and in assay [2] was under 50 nM throughout. The maximal effect (Emax) in assay [1] is 50 to 75%; in assay [2], under 50%.

Take `Cc1ccc(-c2cc(Oc3c(Cl)cc(-n4nc(N)c(=O)[nH]c4=O)cc3Cl)n[nH]c2=O)cc1C` [Compound 112]: the EC50 is 50 to 250 nM in assay [1] and 250 to 1000 nM in assay [2]. In addition, the maximum response (Emax) in assay [1] and in assay [2] was under 50% in each case.

As for `Cc1cc(-n2nc(N)c(=O)[nH]c2=O)cc(C)c1Cc1ccc(O)c(-c2ccccc2)n1` [Compound 43, 6-amino-2-[4-[(5-hydroxy-6-phenylpyridin-2-yl)-methyl]-3,5-dimethylphenyl]-4H-1,2,4-triazine-3,5-dione], in assay [1], the EC50 is under 50 nM and the Emax is over 75%. Also, in assay [2], the concentration for a half-maximal effect (EC50) is under 50 nM and the Emax was over 75%.

`CC(c1ccccc1)c1cc(Oc2c(Cl)cc(-n3nc(N)c(=O)[nH]c3=O)cc2Cl)n[nH]c1=O` (single isomer, unassigned) [Compound 164, 6-Amino-2-(3,5-dichloro-4-((6-oxo-5-(1-phenylethyl)-1,6-dihydropyridazin-3-yl)oxy)phenyl)-1,2,4-triazine-3,5(2H,4H)-dione]: in assay [1], the concentration giving a half-maximal response (EC50) is under 50 nM and the “Activity category Assay 1 THRβ (Emax)” value was “C (Emax<50%)”. Moreover, in assay [2], the EC50 was in the range of 50 to 250 nM and the “Activity category Assay 1 THRα (Emax)” value is “C (Emax<50%)”.
